What all share (format): in vivo
Test [1] concerns Lolium rigidum. The test can be described thus: Herbicidal post-emergence action (Method A) against LOLRI. As to conditions: rated visually after about 3 weeks vs untreated controls; for pest or weed control at 1280 g/ha: Lolium rigidum, post-emergence, 504 h. On the procedure:
(§1) Method A: Herbicidal Post-Emergence Action Seeds of mono- and dicotyledonous weed plants are placed in plastic pots in sandy loam soil (twin sowing with one species each of mono- or dicotyledonous weed plants per pot), covered with soil and cultivated in a greenhouse under controlled growth conditions. 2 to 3 weeks after sowing, the test plants are treated at the one-leaf stage. The compounds of the invention, formulated in the form of wettable powders (WP) or as emulsion concentrates (EC), are applied to the green parts of the plants as aqueous suspension or emulsion with addition of 0.5% additive at a water application rate equivalent to 600 liters per hectare. After the test plants have been kept in the greenhouse under optimum growth conditions for about 3 weeks, the activity of the preparations is rated visually in comparison to untreated controls. For example, 100% activity=the plants have died, 0% activity=like control plants.

The test system of test [2] is Stellaria media. In words: Herbicidal post-emergence action (Method A) against STEME. As to conditions: 504 h, rated visually after about 3 weeks vs untreated controls. The method, then: as §1
For test [3], the system named is Lolium rigidum. In words: Herbicidal pre-emergence action (Method B) against LOLRI. As to conditions: 504 h, scored visually after about 3 weeks vs untreated controls. From the text:
(§2) Method B: Herbicidal Pre-Emergence Action Seeds of mono- and dicotyledonous weed plants are placed in plastic pots in sandy loam soil (doubly sown with one species each of mono- or dicotyledonous weed plants per pot) and covered with soil. The compounds of the invention, formulated in the form of wettable powders (WP) or as emulsion concentrates (EC), are then applied onto the surface of the covering soil as aqueous suspension or emulsion with addition of 0.5% additive at a water application rate equivalent to 600 liters per hectare. After the treatment, the pots are placed in a greenhouse and kept under good growth conditions for the trial plants. After about 3 weeks, the effect of the preparations is scored visually in comparison with untreated controls as percentages. For example, 100% action=the plants have died, 0% action=like control plants.

The test system of test [4] is Echinochloa crus-galli. In words: Herbicidal pre-emergence action (Method B) against ECHCG. The settings on record: 504 h, scored visually after about 3 weeks vs untreated controls.
From the text: as §2

The test system of the next test is Setaria viridis. In words: Herbicidal pre-emergence action (Method B) against SETVI. As to conditions: 1280 g/ha, scored visually after about 3 weeks vs untreated controls.
From the text: as §2

In test [5] the test system is Poa annua. In words: Herbicidal pre-emergence action (Method B) against POAAN. As to conditions: 504 h, scored visually after about 3 weeks vs untreated controls.
From the text: as §2

The test system of test [6] is Stellaria media. The test can be described thus: Herbicidal pre-emergence action (Method B) against STEME. As to conditions: 504 h; for pest or weed control at 320 g/ha: dosage 320 g/ha; for pest or weed control at 1280 g/ha: dosage 1280 g/ha.
From the text: as §2

Test [7] concerns Matricaria inodora. In words: Herbicidal pre-emergence action (Method B) against MATIN. The settings on record: Tripleurospermum inodorum, 504 h, scored visually after about 3 weeks vs untreated controls.
From the text: as §2

Test [8] concerns Echinochloa crus-galli. The test can be described thus: Herbicidal post-emergence action (Method A) against ECHCG. The settings on record: rated visually after about 3 weeks vs untreated controls; for pest or weed control at 1280 g/ha: Echinochloa crus-galli, post-emergence, 504 h. On the procedure: as §1
Test [9] has as its system Poa annua. In words: Herbicidal post-emergence action (Method A) against POAAN. The settings on record: 504 h, rated visually after about 3 weeks vs untreated controls; for pest or weed control at 320 g/ha: read-out: Post-emergence action at 320 g/ha against POANN; for pest or weed control at 1280 g/ha: read-out: Post-emergence action at 1280 g/ha against POANN. The method, then: as §1

The test system of test [10] is harmful plants. In words: Herbicidal pre-emergence action (Method B), summary statement. The settings on record: summary of tables B1-B12 (Method B).
From the text: as §2

Another test concerns Amaranthus retroflexus. The test can be described thus: Herbicidal post-emergence action (Method A) against AMARE. As to conditions: rated visually after about 3 weeks vs untreated controls. On the procedure:
as §1

Test [11] relates to Matricaria inodora. In words: Herbicidal post-emergence action (Method A) against MATIN. The settings on record: 1280 g/ha; rated visually after about 3 weeks vs untreated controls. The method, then:
as §1

Test [12] relates to Abutilon theophrast. In words: Herbicidal post-emergence action (Method A) against ABUTH. As to conditions: rated visually after about 3 weeks vs untreated controls. The method, then:
as §1

The test system of test [13] is harmful plants. In words: Herbicidal post-emergence action (Method A), summary statement. As to conditions: summary of tables A1-A11. The method, then: as §1
In test [14] the test system is Abutilon theophrast. The test can be described thus: Herbicidal pre-emergence action (Method B) against ABUTH. The settings on record: 1280 g/ha, scored visually after about 3 weeks vs untreated controls.
From the text: as §2

For the molecule `NNC(=O)c1nc(C2CC2)ncc1-c1ccccc1Cl` [Example I-497, 5-(2-chlorophenyl)-2-cyclopropylpyrimidine-4-carbohydrazide], the pest or weed control at 1280 g/ha in the test with Lolium rigidum [1], in the test with Stellaria media [2], with Lolium rigidum [3], in the test with Echinochloa crus-galli [4], in the test with Poa annua [5] and in the test on Stellaria media [6] was 100% each time. Further, the pest or weed control at 1280 g/ha in the test on Matricaria inodora [7], with Echinochloa crus-galli [8] and with Poa annua [9] was 100% each time. Also, the pest or weed control at 320 g/ha in the test on Stellaria media [2] was 100%; with Lolium rigidum [3], 90%; with Echinochloa crus-galli [4] it was 100%; in the test on Poa annua [5], 100%; in the test with Stellaria media [6], 100%; in the test on Matricaria inodora [7], 100%. In the test on Poa annua [9], the pest or weed control at 320 g/ha came to 100%. In addition, the “Pre-emergence action against SETVI” value with Setaria viridis was 90%. Also, the “herbicidal efficacy against harmful plants in pre-emergence treatment” value in the test with harmful plants [10] is on record as “good herbicidal efficacy”.

For `O=C(NNc1ccccn1)c1nc(C2CC2)ncc1-c1ccccc1Cl` [Example I-510, 5-(2-chlorophenyl)-2-cyclopropyl-N′-(pyridin-2-yl)pyrimidine-4-carbohydrazide], in the test on Lolium rigidum [1], the “Post-emergence action at 320 g/ha against LOLRI” value is 90%. The pest or weed control at 1280 g/ha was 90% with Lolium rigidum [1]; 100% in the test on Stellaria media [2]; 100% in the test with Lolium rigidum [3]; 100% in the test on Echinochloa crus-galli [4]; 100% with Poa annua [5]; 100% with Stellaria media [6]. Also, the pest or weed control at 1280 g/ha with Matricaria inodora [7] worked out at 100%; in the test on Echinochloa crus-galli [8], 90%; in the test on Poa annua [9] it was 100%. In addition, the pest or weed control at 320 g/ha in the test with Stellaria media [2], with Lolium rigidum [3], with Echinochloa crus-galli [4], in the test on Poa annua [5], with Stellaria media [6] and in the test with Matricaria inodora [7] was 100% in each case. In addition, the pest or weed control at 320 g/ha in the test with Poa annua [9] is 100%. Besides, the “Post-emergence action at 1280 g/ha against AMARE” value with Amaranthus retroflexus came out at 100%. The “Post-emergence action at 1280 g/ha against MATIN” value in the test with Matricaria inodora [11] is reported as 90%. Moreover, the “Pre-emergence action against SETVI” value with Setaria viridis came out at 90%. The “Post-emergence action at 320 g/ha against ECHCG” value with Echinochloa crus-galli [8] was 90%.

Regarding `O=CNNC(=O)c1nc(C2CC2)ncc1-c1ccccc1Cl` [Example I-516, 5-(2-chlorophenyl)-2-cyclopropyl-N′-formylpyrimidine-4-carbohydrazide], in the test with Abutilon theophrast [12], the “Post-emergence action at 1280 g/ha against ABUTH” value is given as 100%. The pest or weed control at 1280 g/ha in the test on Lolium rigidum [1] is 90%; with Stellaria media [2], 100%; in the test with Lolium rigidum [3] it was 100%; in the test with Echinochloa crus-galli [4] it was 100%; with Poa annua [5], 100%; in the test with Stellaria media [6] it was 100%. For the same molecule, the pest or weed control at 1280 g/ha in the test with Matricaria inodora [7], with Echinochloa crus-galli [8] and with Poa annua [9] was 100% in each case. In addition, the pest or weed control at 320 g/ha with Stellaria media [2] stood at 90%; in the test on Lolium rigidum [3] it was 100%; in the test on Poa annua [5], 100%; in the test on Stellaria media [6], 100%; with Poa annua [9], 100%. Further, in the test on Matricaria inodora [11], the “Post-emergence action at 1280 g/ha against MATIN” value amounted to 90%. Moreover, the “Post-emergence action at 320 g/ha against ECHCG” value with Echinochloa crus-galli [8] is reported as 90%. Also, the “herbicidal efficacy against harmful plants in the case of post-emergence treatment” value in the test with harmful plants [13] is listed as “good herbicidal efficacy”.

In the case of `O=C(NNC(=O)c1nc(C2CC2)ncc1-c1ccccc1Cl)c1ccccn1` [Example I-527, 5-(2-chlorophenyl)-2-cyclopropyl-N′-(pyridin-2-ylcarbonyl)pyrimidine-4-carbohydrazide], the “Post-emergence action at 320 g/ha against LOLRI” value with Lolium rigidum [1] worked out at 100%. For the same molecule, the pest or weed control at 1280 g/ha with Lolium rigidum [1], in the test on Stellaria media [2], in the test with Lolium rigidum [3], with Echinochloa crus-galli [4], with Poa annua [5] and with Stellaria media [6] was 100% in each case. Besides, the pest or weed control at 1280 g/ha in the test with Echinochloa crus-galli [8] turned out to be 90%; with Poa annua [9], 100%. For the same molecule, the pest or weed control at 320 g/ha with Stellaria media [2] was determined as 100%; in the test on Lolium rigidum [3] it was 90%; in the test with Echinochloa crus-galli [4] it was 90%; in the test on Poa annua [5], 100%; in the test on Stellaria media [6], 100%; in the test with Poa annua [9], 100%. The “Post-emergence action at 1280 g/ha against AMARE” value in the test on Amaranthus retroflexus came out at 100%. For the same molecule, in the test on Abutilon theophrast [14], the “Pre-emergence action against ABUTH” value amounted to 90%. Besides, in the test with Matricaria inodora [11], the “Post-emergence action at 1280 g/ha against MATIN” value stood at 90%.

As to `CCNC(=O)NNC(=O)c1nc(C2CC2)ncc1-c1ccccc1Cl` [Example I-552, 2-{[5-(2-chlorophenyl)-2-cyclopropylpyrimidin-4-yl]carbonyl}-N-ethylhydrazinecarboxamide], the “Post-emergence action at 320 g/ha against LOLRI” value with Lolium rigidum [1] is 90%. Also, the pest or weed control at 1280 g/ha with Lolium rigidum [1] came out at 90%; in the test on Stellaria media [2], 100%; in the test on Lolium rigidum [3] it was 90%; in the test on Echinochloa crus-galli [4] it was 90%; in the test with Poa annua [5], 100%; in the test on Stellaria media [6], 100%. Further, the pest or weed control at 1280 g/ha in the test with Matricaria inodora [7], in the test with Echinochloa crus-galli [8] and with Poa annua [9] was 100% throughout. In addition, the pest or weed control at 320 g/ha with Lolium rigidum [3] is 90%; in the test on Poa annua [5], 100%; in the test with Stellaria media [6], 100%; with Matricaria inodora [7], 90%; in the test with Poa annua [9], 100%. In addition, in the test on Abutilon theophrast [14], the “Pre-emergence action against ABUTH” value amounted to 90%. Moreover, the “Post-emergence action at 1280 g/ha against MATIN” value in the test on Matricaria inodora [11] is given as 90%. In addition, the “Post-emergence action at 320 g/ha against ECHCG” value with Echinochloa crus-galli [8] worked out at 90%.
